Assay results as given in PubChem BioAssay AID330 (DTP/NCI, 2004).
Inconclusive results and toxic doses are left out. The calls were made as follows: active = survival T/C of 150% or more; inactive = T/C below 125% in these data.

Test system: P388 leukemia ip, CD2F1 mice, survival T/C
Assay: NCI In Vivo Anticancer Drug Screen. Data for tumor model P388 Leukemia (intraperitoneal) in CD2F1 (CDF1) mice
Conditions: endpoint: median survival time, higher = longer survival
Procedure, shortened: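 Mice carrying the transplanted tumor received test compound or vehicle. Survival was recorded in each group, and the value is the treated-group measurement divided by that of the vehicle-treated control group.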

[1] = dose: 60.0 mg/kg/injection, schedule: Q01DX005 (ip), vehicle: saline
[2] = dose: 120.0 mg/kg/injection, schedule: Q01DX005 (ip), vehicle: saline
[3] = dose: 240.0 mg/kg/injection, schedule: Q01DX005 (ip), vehicle: saline
[4] = dose: 50.0 mg/kg/injection, schedule: Q01DX005 (ip), vehicle: saline
[5] = dose: 100.0 mg/kg/injection, schedule: Q01DX005 (ip), vehicle: saline
[6] = dose: 200.0 mg/kg/injection, schedule: Q01DX005 (ip), vehicle: saline
[7] = dose: 50.0 mg/kg/injection, schedule: Q01DX009 (ip), vehicle: Klucel (hydroxypropylcellulose) (HPC)
[8] = dose: 100.0 mg/kg/injection, schedule: Q01DX009 (ip), vehicle: Klucel (hydroxypropylcellulose) (HPC)
[9] = dose: 50.0 mg/kg/injection, schedule: Q01DX005 (ip), vehicle: saline with Tween-80
[10] = dose: 100.0 mg/kg/injection, schedule: Q01DX005 (ip), vehicle: saline with Tween-80
[11] = dose: 200.0 mg/kg/injection, schedule: Q01DX005 (ip), vehicle: saline with Tween-80
[12] = dose: 50.0 mg/kg/injection, schedule: Q04DX003 (ip), vehicle: saline with Tween-80
[13] = dose: 100.0 mg/kg/injection, schedule: Q04DX003 (ip), vehicle: saline with Tween-80
[14] = dose: 200.0 mg/kg/injection, schedule: Q04DX003 (ip), vehicle: saline with Tween-80
[15] = dose: 50.0 mg/kg/injection, schedule: Q01DX005 (ip), vehicle: Klucel (hydroxypropylcellulose) (HPC)
[16] = dose: 100.0 mg/kg/injection, schedule: Q01DX005 (ip), vehicle: Klucel (hydroxypropylcellulose) (HPC)
[17] = dose: 200.0 mg/kg/injection, schedule: Q01DX005 (ip), vehicle: Klucel (hydroxypropylcellulose) (HPC)
[18] = dose: 200.0 mg/kg/injection, schedule: Q01DX009 (ip), vehicle: Klucel (hydroxypropylcellulose) (HPC)

Measured: T/C

Cc1ncc2c(c1O)COC2C (stereo not given)
inactive: [1] 100 % of control | [2] 97 % of control | [3] 99 % of control

CCCCN(CCCC)C(=O)/C(O)=C(\O)C(=O)N(CCCC)CCCC
inactive: dose: 25.0 mg/kg/injection, schedule: Q01DX005 (ip), vehicle: saline 90 % of control | [4] 96 % of control | [5] 92 % of control | [6] 113 % of control

Cc1cnc(C=O)c2cccc([N+](=O)[O-])c12
inactive: [7] 105 % of control | [8] 112 % of control

COC(=O)C(C/C(=C/NC(=O)c1ccccc1)NC(=O)c1ccccc1)NC(=O)c1ccccc1 (stereo not given)
inactive: [9] 98 % of control | [10] 98 % of control | [11] 100 % of control

CCCCCCCCCCCCC[N+]1(CC)CCCCC1
inactive: dose: 0.78 mg/kg/injection, schedule: Q01DX009 (ip), vehicle: saline 105 % of control | dose: 1.56 mg/kg/injection, schedule: Q01DX009 (ip), vehicle: saline 118 % of control | dose: 3.12 mg/kg/injection, schedule: Q01DX009 (ip), vehicle: saline 110 % of control

CC1CCCCC1O (stereo not given)
inactive: [12] 110 % of control | [13] 115 % of control | [14] 115 % of control

CCOC(=O)C(CCC#N)(C(=O)Cc1ccc(OC)c(OC)c1)C(=O)OCC
inactive: dose: 25.0 mg/kg/injection, schedule: Q01DX009 (ip), vehicle: other 101 % of control | dose: 50.0 mg/kg/injection, schedule: Q01DX009 (ip), vehicle: other 103 % of control | dose: 100.0 mg/kg/injection, schedule: Q01DX009 (ip), vehicle: other 106 % of control | dose: 200.0 mg/kg/injection, schedule: Q01DX009 (ip), vehicle: other 103 % of control | dose: 400.0 mg/kg/injection, schedule: Q01DX009 (ip), vehicle: other 103 % of control

Nc1cc(-c2ccc(Br)cc2)nn1-c1nnc(-c2ccccc2)c(-c2ccccc2)n1
inactive: [9] 101 % of control | [10] 93 % of control | [11] 92 % of control

O=C(Nc1ccc(Cl)cc1)Sc1nnc2c(n1)[nH]c1ccccc12
inactive: [15] 103 % of control | [16] 111 % of control | [17] 103 % of control

Cc1nc2ccccc2c(=O)n1C(C)C
inactive: dose: 50.0 mg/kg/injection, schedule: Q01DX009 (ip), vehicle: saline 99 % of control | dose: 100.0 mg/kg/injection, schedule: Q01DX009 (ip), vehicle: saline 100 % of control | dose: 200.0 mg/kg/injection, schedule: Q01DX009 (ip), vehicle: saline 104 % of control

Cn1c(Cl)c(C=O)c(=O)n(C)c1=O
inactive: [13] 104 % of control | [14] 96 % of control

Cc1ccc(Cc2ccc[nH]2)cc1
inactive: dose: 100.0 mg/kg/injection, schedule: Q04DX002 (ip), vehicle: distilled water + Tween-80 + alcohol 100 % of control | dose: 200.0 mg/kg/injection, schedule: Q04DX002 (ip), vehicle: distilled water + Tween-80 + alcohol 100 % of control | dose: 400.0 mg/kg/injection, schedule: Q04DX002 (ip), vehicle: distilled water + Tween-80 + alcohol 103 % of control

Cc1ccc(S(=O)CC2=NC(C)(C)CO2)cc1 (stereo not given)
inactive: [4] 104 % of control | [5] 98 % of control | [6] 103 % of control

CC(C)B1N(C(C)(C)C)B(C(C)C)N(C(C)(C)C)B(C(C)C)N1C(C)(C)C
inactive: dose: 60.0 mg/kg/injection, schedule: Q01DX005 (ip), vehicle: saline with Tween-80 93 % of control | dose: 120.0 mg/kg/injection, schedule: Q01DX005 (ip), vehicle: saline with Tween-80 101 % of control | dose: 240.0 mg/kg/injection, schedule: Q01DX005 (ip), vehicle: saline with Tween-80 104 % of control

CC(Cl)CN1CCOC1=O (stereo not given)
inactive: dose: 12.5 mg/kg/injection, schedule: Q01DX001 (ip), vehicle: saline 106 % of control | dose: 25.0 mg/kg/injection, schedule: Q01DX001 (ip), vehicle: saline 96 % of control | dose: 50.0 mg/kg/injection, schedule: Q01DX001 (ip), vehicle: saline 105 % of control | dose: 100.0 mg/kg/injection, schedule: Q01DX001 (ip), vehicle: saline 102 % of control

NC(=S)c1cncnc1N
inactive: dose: 25.0 mg/kg/injection, schedule: Q04DX003 (ip), vehicle: saline with Tween-80 102 % of control | [12] 99 % of control | [13] 104 % of control

COC(=O)C1=C(N)C(C#N)=C(C)C(C)(O)C1 (stereo not given)
inactive: [7] 99 % of control | [8] 97 % of control | [18] 108 % of control

[N-]=[N+]=N[Si](c1ccccc1)(c1ccccc1)c1ccccc1
inactive: [7] 103 % of control | [8] 101 % of control | [18] 103 % of control

CC(C(=O)c1ccc(O)cc1)(c1nc2nnc(N)n2[nH]c1=O)c1nc2nnc(N)n2[nH]c1=O
inactive: [1] 98 % of control | [2] 98 % of control | [3] 97 % of control

CC(=O)Nc1ccc(S(=O)(=O)c2ccc(NC(C)=O)s2)s1
inactive: [15] 98 % of control | [16] 95 % of control | [17] 89 % of control

C[N+]1=C(/C=C/Nc2ccc3ccc4cccc5ccc2c3c45)C(C)(C)c2ccccc21
inactive: dose: 6.25 mg/kg/injection, schedule: Q01DX009 (ip), vehicle: saline with Tween-80 108 % of control | dose: 12.5 mg/kg/injection, schedule: Q01DX009 (ip), vehicle: saline with Tween-80 100 % of control | dose: 25.0 mg/kg/injection, schedule: Q01DX009 (ip), vehicle: saline with Tween-80 105 % of control | dose: 50.0 mg/kg/injection, schedule: Q01DX009 (ip), vehicle: saline with Tween-80 89 % of control

CC1OC=CC(OC2OC(CO)C(O)C(O)C2O)C1O (stereo not given)
inactive: dose: 21.25 mg/kg/injection, schedule: Q01DX005 (ip), vehicle: saline 109 % of control | dose: 42.5 mg/kg/injection, schedule: Q01DX005 (ip), vehicle: saline 116 % of control | dose: 85.0 mg/kg/injection, schedule: Q01DX005 (ip), vehicle: saline 108 % of control | dose: 170.0 mg/kg/injection, schedule: Q01DX005 (ip), vehicle: saline 101 % of control

CCOC(=O)C(Cl)c1ccc(OC)cc1 (stereo not given)
inactive: dose: 100.0 mg/kg/injection, schedule: Q04DX003 (ip), vehicle: other 104 % of control | dose: 200.0 mg/kg/injection, schedule: Q04DX003 (ip), vehicle: other 90 % of control | dose: 400.0 mg/kg/injection, schedule: Q04DX003 (ip), vehicle: other 104 % of control

CNC1c2ccccc2CCC1O (stereo not given)
inactive: dose: 100.0 mg/kg/injection, schedule: Q04DX002 (ip), vehicle: Klucel (hydroxypropylcellulose) (HPC) 100 % of control | dose: 200.0 mg/kg/injection, schedule: Q04DX002 (ip), vehicle: Klucel (hydroxypropylcellulose) (HPC) 96 % of control
